pIC50: −log10 of the molar value.
Tests used:
[1] = test system: Spontaneously Hypertensive Rats; test: Spontaneously Hypertensive Rat (SHR) Test, hemodynamics in anesthetized rats; assay type: in vivo, Spontaneously Hypertensive Rat (Sprague Dawley); settings: for HR (Heart Rate: change from basal) / LVPT (time for Left Ventricular Pressure to decay from peak to 50%, % of basal) / MBP (Mean Blood Pressure: change from basal) / RT64 (change in time from maximal relaxation, % of basal) / dP/dT40 (change in rate of systolic pressure increase of left ventricle measured at 40 mm Hg from basal): anesthetized SHR; for effect on blood pressure (in words) / effect on dP/dT40 (in words) / effect on heart rate (in words) / effect on myocardial relaxation time constants (in words): SHR
Description: Male Retired Breeder Spontaneously Hypertensive Rats (SHR) (Sprague Dawley, 250-350 g) are anesthetized by i.p. injection of Sodium Thiopental 50 mg/kg. A catheter is inserted into the duodenum for maintenance of anesthesia throughout the experiment. A tube is inserted through a lateral incision in the trachea. The left carotid artery is exposed and a Millar SPR-249 (2-F) pressure probe is inserted and passed into the left ventricle of the heart. Left ventricular pressure (LVP), the first differential of the LVP (+dP/dT,-dP/dT), the left ventricular end diastolic pressure (LVEDP) and the differential of the increase in LVP measured at a constant pressure of 40 mm Hg (dP/dT40) are measured via this probe. In addition to these parameters, two indices of myocardial diastolic relaxation are measured namely the RT64 (time in msec from the peak derivative of maximal relaxation to 64% of that value) and the Left Ventricular Pressure Time Constant (LVPT), the half-time for decay of the LVP from peak pressure to 50% of that pressure. […] Results also are shown graphically on a Gould RS3800 Recorder. A saline filled cannula is passed into the femoral vein for infusion of drugs and one is placed into the femoral artery for measurement and recording or arterial blood pressure (Statham P23Db pressure transducer). From this signal the diastolic, systolic and mean blood pressure are derived as well as the heart rate. After surgery, the preparation is left to stabilize for 45 minutes after which compounds, dissolved in polyethylene glycol, are slowly infused with a Sage Instruments Infusion pump into the femoral vein. […] After completion of the last infusion, hemodynamic parameters are observed over 30 min and then a standard dose of 3.0 mg/kg milrinone is infused (over 5 min) to test preparation responsiveness. In the SHR, the following results were obtained for several known cardiovascular agents and for the compound of Examples 10,11,15 and 16.

rat aorta = test: Rat Aorta Protocol: relaxation of phenylephrine-contracted rings of rat aorta (endothelium removed)
Description: Rings of rat aorta (endothelium removed) were prepared for the measurement of isometric force in isolated tissue organ chambers essentially as previously described by T. J. Rimele et al in the Journal of Pharmacol. Exp. Ther. 245:102-111 (1988). The experimental portion of the protocol began with the addition of methylene blue (1×10^-5 M) and propranolol (1×10^-6 M) to each organ chamber to inhibit basal cGMP accumulation due to soluble guanylate cyclase and beta-adrenoceptors.Phenylephrine (1×10^-7 M) was then added and the rings were allowed to obtain a stable contractile response after which time, the test compound was added in a cumulative fashion. The relaxation induced by each concentration of the test compound was expressed as a percentage of the maximal relaxation produced by nitroprusside (1×10^-4 M) The results were graphically represented as a plot of the percentage relaxation vs. the negative log of the molar concentration of the test compound. The IC50 (concentration of test compound which produced a relaxation equivalent to 50% of the maximal relaxation induced by nitroprusside) was determined for each tissue.

Structure (SMILES) | HR (Heart Rate: change from basal) ([1]; 0.3 mg/kg i.v.) [%] | LVPT (time for Left Ventricular Pressure to decay from peak to 50%, % of basal) ([1]; 0.3 mg/kg i.v.) [%] | MBP (Mean Blood Pressure: change from basal) ([1]; 0.3 mg/kg i.v.) [%] | RT64 (change in time from maximal relaxation, % of basal) ([1]; 0.3 mg/kg i.v.) [%] | dP/dT40 (change in rate of systolic pressure increase of left ventricle measured at 40 mm Hg from basal) ([1]; 0.3 mg/kg i.v.) [%] | HR (Heart Rate: change from basal) ([1]; 1.0 mg/kg i.v.) [%] | LVPT (time for Left Ventricular Pressure to decay from peak to 50%, % of basal) ([1]; 1.0 mg/kg i.v.) [%] | MBP (Mean Blood Pressure: change from basal) ([1]; 1.0 mg/kg i.v.) [%] | RT64 (change in time from maximal relaxation, % of basal) ([1]; 1.0 mg/kg i.v.) [%] | dP/dT40 (change in rate of systolic pressure increase of left ventricle measured at 40 mm Hg from basal) ([1]; 1.0 mg/kg i.v.) [%] | HR (Heart Rate: change from basal) ([1]; 3.0 mg/kg i.v.) [%] | LVPT (time for Left Ventricular Pressure to decay from peak to 50%, % of basal) ([1]; 3.0 mg/kg i.v.) [%] | MBP (Mean Blood Pressure: change from basal) ([1]; 3.0 mg/kg i.v.) [%] | RT64 (change in time from maximal relaxation, % of basal) ([1]; 3.0 mg/kg i.v.) [%] | dP/dT40 (change in rate of systolic pressure increase of left ventricle measured at 40 mm Hg from basal) ([1]; 3.0 mg/kg i.v.) [%] | further results
COC(=O)C1=C(C)NC(C)=C(C(=O)OCCNC(=O)COc2ccc(-c3cc(C#N)c(=O)[nH]c3C)cc2)C1c1cccc([N+](=O)[O-])c1 (racemic) [Example 10, (±)-2,6-dimethyl-3-carbomethoxy-4-(3-nitrophenyl)-5-{4-[1,2-dihydro-2-oxo-3-cyano-6-methyl-5(1H)-pyridy]phenoxymethylenecarboxyamidoethyloxycarbonyl}-1,4-dihydropyridine] | -1.8 | -5.1 | -2.6 | -2.6 | 0 | -2.5 | -7.4 | -3.8 | -5.2 | 1.5 | 1.1 | -14 | -6.3 | -13.2 | 4.2 | HR (Heart Rate: change from basal) ([1]; 10 mg/kg i.v.): 6.4%; LVPT (time for Left Ventricular Pressure to decay from peak to 50%, % of basal) ([1]; 10 mg/kg i.v.): -25%; MBP (Mean Blood Pressure: change from basal) ([1]; 10 mg/kg i.v.): -23%; RT64 (change in time from maximal relaxation, % of basal) ([1]; 10 mg/kg i.v.): -19.3%; dP/dT40 (change in rate of systolic pressure increase of left ventricle measured at 40 mm Hg from basal) ([1]; 10 mg/kg i.v.): 24.7%; effect on blood pressure (in words) ([1]; 0.3 to 10 mg/kg i.v.): hypotension; effect on dP/dT40 (in words) ([1]; 0.3 to 10 mg/kg i.v.): an increase in dP/dT40; effect on heart rate (in words) ([1]; 0.3 to 10 mg/kg i.v.): little change in heart rate; effect on myocardial relaxation time constants (in words) ([1]; 0.3 to 10 mg/kg i.v.): reduction in the time constants for myocardial relaxation; Emax at 100 µM (rat aorta; highest dose tested (100 micromolar), read-out: maximal response (relaxation, % of maximal relaxation by nitroprusside)): 96%; pIC50 (rat aorta; phenylephrine 1×10^-7 M contracted, methylene blue and propranolol present, read-out: IC50 (concentration producing relaxation equivalent to 50% of the maximal relaxation induced by nitroprusside)): 5.68
COC(=O)C1=C(C)NC(C)=C(C(=O)OC)C1c1ccccc1[N+](=O)[O-] [Nifedipine] | 1 | 3 | -30 | -7 | 2 | -5 | -7 | -47.5 | -21 | -15.5 | -7.5 | -18.5 | -47.5 | -25 | -28.8 | HR (Heart Rate: change from basal) ([1]; 0.1 mg/kg i.v.): 3%; LVPT (time for Left Ventricular Pressure to decay from peak to 50%, % of basal) ([1]; 0.1 mg/kg i.v.): -8%; MBP (Mean Blood Pressure: change from basal) ([1]; 0.1 mg/kg i.v.): -12%; RT64 (change in time from maximal relaxation, % of basal) ([1]; 0.1 mg/kg i.v.): -7%; dP/dT40 (change in rate of systolic pressure increase of left ventricle measured at 40 mm Hg from basal) ([1]; 0.1 mg/kg i.v.): 7.5%; effect on blood pressure (in words) ([1]; 0.1 to 3 mg/kg i.v.): hypotension; effect on dP/dT40 (in words) ([1]; 0.1 to 3 mg/kg i.v.): a depression of dP/dT40; effect on heart rate (in words) ([1]; 0.1 to 3 mg/kg i.v.): little change in heart rate; effect on myocardial relaxation time constants (in words) ([1]; 0.1 to 3 mg/kg i.v.): significant reduction of myocardial relaxation time constants only at the highest dose tested (3 mg/kg)

Reference: patent US5100892A, “Dihydropyridine vasodilator agents” (Glaxo Inc., priority 1990, dated 1992)
